# Reference: US8334253B2, “Cosmetic and dermatological formulations of MNTF peptides” (Dermacare Neuroscience Institute, priority 2008, dated 2012)
# Peptide text beside a SMILES is read from it. * marks the point of attachment. Palmitoyl = CCCCCCCCCCCCCCCC(=O)*
# How the values were obtained:
# [1] = system: UVA-bleaching of beta-carotene; assay: UVA bleaching of beta-carotene on forearm skin, Color Index by CHROMAMETER; format: in vivo, human; conditions: 0.1% gel on human forearm, UVA
# Protocol: In-vivo method for assessing the protective effects of cosmetic products. Bleaching of carotenoids have been used to evaluate the auto-oxidation activity of natural products. The relative efficacy of scavengers of lipid peroxyl free radicals after application to the skin was assessed by measuring the UVA-bleaching of beta-carotene as a function of the energy exposure.
# A CHROMAMETER colorimeter (TM, Minolta Model CR-300) was used to measure changes in color by expressing the color of measured surfaces numerically in L*a*b* color space which is a system recommended by the CIE (Commission Internationale de I'Eclairage) for skin color assessment. In this color space, L* is the luminance and gives the relative brightness from total black (L*=0) to total white (L*=100). The a* value represents the balance between the reds (positive values) and the greens (negative values). The b* value represents the balance between the yellows (positive values) and the blues (negative values). The b* value most closely describes the intensity of the orange color of the β-carotene stain and is in direct correlation with the Color Index, I. The CHROMAMETER provides a means by which oxidative damage caused by free radicals and, conversely, the prevention of oxidation by free radical scavengers, can be measured. Free radical oxidation induced by UVA radiation elicits a bleaching and reduction of color of beta-carotene stain. The bleaching and prevention of bleaching by a test material can be measured by the CHROMAMETER. Bleaching is reported as the change in b* versus UVA Irradiation Energy. It can also be expressed in terms of a Color Index, I, defined as: I=[(bn*−bi*)/(b0*−bi*)]×100 where, bn* is the value of b* measured after n J/cm^2 of irradiation of the area treated with the cosmetic formulation and painted with the β-carotene; b0* is the value of b* after application of the beta-carotene but before irradiation; and bi* is the value of b* before application of the beta-carotene. This index compensates for any effects of skin color on bn* and b0*. Bleaching will cause bn* value and I value (as a percentage) to decrease. Prevention of bleaching will result in higher I values or less reduction in I value when exposed to radiation.
# The designated forearm of impaneled subjects was cleansed with a 70% isopropyl alcohol prep pad (Medium, Dynarex) and allowed to dry. Test sites were selected on the volar surface of the designated forearm of each subject, with each test site defined by the open, central area of a self-adhesive ring (Professional ProFoot™ Products, P.P.R. Co, Inc.). The adhesive side of the rings were placed directly on the skin. The rings were used to retain the test material and beta-carotene solution as well as to function as a guide for taking measurements with the CHROMAMETER.
# Gel formulations (0.1% Pal-hexapeptide) and (0.1% hexapeptide) were applied to the forearm according to a randomized schedule. Additional sites were treated with a beta-carotene control, a positive control (internal control) and an untreated control. Treatment of the test sites were randomized for each subject.
# Prior to application of the test materials or beta-carotene, the initial b* parameter was measured using the CHROMAMETER and recorded for all duplicate test sites of the forearm (Baseline). Approximately 2 mg/cm^2 of each material was applied to the designated test site and spread manually with a finger cot to ensure even distribution. Sites designated as untreated, with or without beta-carotene, remained untreated at this time. The test materials and internal control were allowed to incubate with the skin surface for a period of fifteen (15) minutes. After this incubation period, b* measurements were recorded for all sites (Product Baseline).
# A solution of beta-carotene in a mixture of capric and caprylic triglycerides was applied to all treated sites. The b* parameter is again measured and recorded (beta-carotene Baseline). […]
# [2] = system: hyaluronic acid levels in adult human dermal fibroblast (aHDF) conditioned media; assay: Hyaluronic acid in fibroblast-conditioned medium (HA-ELISA); format: cell-based; conditions: 96 h
# Source text: Hyaluronic acid (hyaluronan, HA), a naturally occurring carbohydrate polymer is a key component of connective, epithelial and neural tissues. HA participates in hydrodynamics, movement and proliferation of cells. This test was designed to determine whether a sample of palmitylated and non-palmitylated MNTF hexapeptide has an effect on hyaluronic acid levels in the adult human dermal fibroblast (aHDF) conditioned media.
# Adult HDF (facial, passage 2, Cell Applications, San Diego, Calif. cat.#106-05A lot#1392) were plated in high glucose phosphate-free DMEM supplemented with 5% cosmic serum from Hyclone, Utah) at 6,000 cells per well and test materials were added the following day. Test materials were: Pal-Hexapeptide (palmitylated SEQ ID NO:2 as a lyophilized powder labeled APC 341055, lot V08150A1, received from DermaCare Neuroscience Institute), type I sterile water (negative control) and basic fibroblast growth factor (bFGF, positive control). Pal-Hexapeptide was dissolved in water at 20 mg/ml. Final concentrations tested were: 400, 200, 100, 50 and 25 ug/ml for DNP and 5 ng/ml for bFGF (plate 507). After 96 h, cell culture conditioned media were collected and 100 ul aliquotes were used for the HA assay. HA assay was performed using Hyaluronan Enzyme-Linked Immunosorbent Assay Kit (HA-ELISA, cat. #K-1200) from Echelon (Salt Lake City, Utah). The HA output was measured by following the generation of a chromophoric reaction product in 96 well plate, with the use of a BioRad microplate reader at 410 nm and the effect of the test materials was determined using the formula: Absorbance 410 (sample)/Absorbance 410 (Zero HA)×100.
# Adult HDF (facial, passage 2, Cell Applications, San Diego, Calif. cat.#106-05A lot#1392) were plated in high glucose phosphate-free DMEM supplemented with 5% cosmic serum from Hyclone, Utah) at 6,000 cells per well and test materials were added the following day. Test materials were: hexapeptide (SEQ ID NO:2 (non-palmitylated), lyophilized powder lot #D294, received from DermaCare Neuroscience Institute), type I sterile water (negative control) and basic fibroblast growth factor (bFGF, positive control). Pal-Hexapeptide was dissolved in water at 20 mg/ml. Final concentrations tested were: 2000, 1000, 500 and 250 ug/ml for hexapeptide and 5 ng/ml for bFGF (plate 507). After 96 h, cell culture conditioned media were collected and 100 ul aliquotes were used for the HA assay. HA assay was performed using Hyaluronan Enzyme-Linked Immunosorbent Assay Kit (HA-ELISA, cat. #K-1200) from Echelon (Salt Lake City, Utah). The HA output was measured by following the generation of a chromophoric reaction product in 96 well plate, with the use of a BioRad microplate reader at 410 nm and the effect of the test materials was determined using the formula: Absorbance 410 (sample)/Absorbance 410 (Zero HA)×100.
structure (smiles),measurement,setting,value
"CCCCCCCCCCCCCCCC(=O)N[C@@H](Cc1ccccc1)C(=O)N[C@@H](CO)C(=O)N[C@@H](CCCNC(=N)N)C(=O)N[C@@H](Cc1ccc(O)cc1)C(=O)N[C@@H](C)C(=O)N[C@@H](CCCNC(=N)N)C(=O)O [Pal 6 mer, Pal-FSRYAR] (Palmitoyl-FSRYAR-OH; C-terminus assumed)",preventing the bleaching of beta-carotene compared to the beta-carotene control,[1],effective as a free radical scavenger
same,stimulation of hyaluronic acid in the fibroblast-conditioned medium,[2]; 50 ug/ml,about 15%
same,stimulation of hyaluronic acid in the fibroblast-conditioned medium,[2]; 100 ug/ml,about 15%
same,stimulation of hyaluronic acid in the fibroblast-conditioned medium,[2]; 200 ug/ml,40%
same,stimulation of hyaluronic acid in the fibroblast-conditioned medium,[2]; 400 ug/ml,40%
